Each block holds one compound with its values, some of them ahead of it.
Legend:
[1] = molecular target: T1, bovine cardiac myofibrils (BcMF) (Bos taurus, UniProt Q9BE39); assay: Single mant-ATP turnover kinetics in BcMF; assay type: biochemical
[2] = molecular target: T1, bovine cardiac myofibrils (BcMF); assay: Myofibrillar ATPase activity at pCa 6; assay type: biochemical; details: read-out: Myofibrillar ATPase (BcMF) IC50, pCa 6, 23°C
[3] = molecular target: T2, human β-cardiac 25-hep HMM (Homo sapiens, UniProt P12883); assay: Small-angle X-ray scattering; details: at 20 μM mavacamten and 50 μM para-nitroblebbistatin
[4] = molecular target: T3, myosin in bovine cardiac synthetic thick filaments (BcSTF) (Bos taurus, UniProt Q9BE39); assay: Basal myosin ATPase activity; assay type: biochemical; details: read-out: Basal ATPase (BcSTF) IC50, 1 μM myosin, 23°C
[5] = molecular target: T2, human β-cardiac 25-hep HMM; assay: SEC-MALS-DLS light scattering of 25-hep HMM; details: at 20 μM mavacamten and 50 μM para-nitroblebbistatin
[6] = molecular target: T3, myosin in bovine cardiac synthetic thick filaments (BcSTF); assay: Single mant-ATP turnover kinetics in BcSTF; assay type: biochemical
myosin = assay: Blebbistatin binding to myosin in the presence of mavacamten; details: Fig. S2

T3 sequence (Q9BE39 whole entry): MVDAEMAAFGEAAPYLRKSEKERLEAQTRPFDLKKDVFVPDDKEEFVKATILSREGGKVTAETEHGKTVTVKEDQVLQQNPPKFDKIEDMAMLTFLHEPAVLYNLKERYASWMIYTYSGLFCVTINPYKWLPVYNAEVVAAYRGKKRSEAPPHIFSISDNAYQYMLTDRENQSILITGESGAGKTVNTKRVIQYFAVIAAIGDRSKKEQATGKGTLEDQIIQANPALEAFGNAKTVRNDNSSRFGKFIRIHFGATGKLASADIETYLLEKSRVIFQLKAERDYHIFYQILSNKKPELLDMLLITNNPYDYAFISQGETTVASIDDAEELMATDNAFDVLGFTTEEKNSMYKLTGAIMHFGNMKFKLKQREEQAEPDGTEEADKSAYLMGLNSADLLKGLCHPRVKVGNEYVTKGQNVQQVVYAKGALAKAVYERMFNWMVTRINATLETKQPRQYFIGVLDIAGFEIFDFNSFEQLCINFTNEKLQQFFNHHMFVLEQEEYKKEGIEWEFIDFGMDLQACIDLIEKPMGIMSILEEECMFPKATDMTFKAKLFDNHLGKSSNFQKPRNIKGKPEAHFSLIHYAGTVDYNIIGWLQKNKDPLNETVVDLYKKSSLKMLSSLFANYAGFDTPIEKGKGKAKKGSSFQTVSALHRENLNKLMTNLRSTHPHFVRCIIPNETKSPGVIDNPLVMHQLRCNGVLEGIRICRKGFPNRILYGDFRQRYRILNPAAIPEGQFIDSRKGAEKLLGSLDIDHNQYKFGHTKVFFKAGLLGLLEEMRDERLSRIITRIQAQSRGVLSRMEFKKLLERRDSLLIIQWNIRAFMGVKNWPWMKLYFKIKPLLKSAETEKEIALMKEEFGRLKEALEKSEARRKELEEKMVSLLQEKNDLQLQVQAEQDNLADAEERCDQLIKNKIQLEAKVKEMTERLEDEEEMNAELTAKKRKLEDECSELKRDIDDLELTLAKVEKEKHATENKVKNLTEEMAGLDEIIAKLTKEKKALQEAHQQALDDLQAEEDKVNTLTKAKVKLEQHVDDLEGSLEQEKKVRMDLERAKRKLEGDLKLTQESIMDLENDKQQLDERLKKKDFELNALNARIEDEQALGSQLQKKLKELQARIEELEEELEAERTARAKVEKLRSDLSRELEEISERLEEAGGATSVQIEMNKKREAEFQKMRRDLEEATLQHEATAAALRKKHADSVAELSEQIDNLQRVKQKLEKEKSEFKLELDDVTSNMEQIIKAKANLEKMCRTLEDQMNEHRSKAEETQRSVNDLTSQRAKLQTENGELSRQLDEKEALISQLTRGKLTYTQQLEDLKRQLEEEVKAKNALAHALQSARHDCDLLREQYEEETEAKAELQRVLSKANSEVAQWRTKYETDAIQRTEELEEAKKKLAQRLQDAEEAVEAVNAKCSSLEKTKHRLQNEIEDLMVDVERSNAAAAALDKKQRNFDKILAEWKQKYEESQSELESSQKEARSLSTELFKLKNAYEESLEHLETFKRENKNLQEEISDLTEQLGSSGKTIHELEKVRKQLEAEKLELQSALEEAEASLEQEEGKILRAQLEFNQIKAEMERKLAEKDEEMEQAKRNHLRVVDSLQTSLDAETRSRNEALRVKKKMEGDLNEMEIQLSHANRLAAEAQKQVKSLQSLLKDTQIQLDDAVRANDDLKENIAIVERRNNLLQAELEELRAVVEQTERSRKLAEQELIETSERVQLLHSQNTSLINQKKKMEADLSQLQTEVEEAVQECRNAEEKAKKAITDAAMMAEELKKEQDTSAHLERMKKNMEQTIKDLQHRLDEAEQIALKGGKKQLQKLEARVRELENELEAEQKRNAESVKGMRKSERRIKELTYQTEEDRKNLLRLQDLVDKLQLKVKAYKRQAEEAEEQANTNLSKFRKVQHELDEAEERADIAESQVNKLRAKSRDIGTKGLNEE
T3 sequence (P85100 whole entry partner): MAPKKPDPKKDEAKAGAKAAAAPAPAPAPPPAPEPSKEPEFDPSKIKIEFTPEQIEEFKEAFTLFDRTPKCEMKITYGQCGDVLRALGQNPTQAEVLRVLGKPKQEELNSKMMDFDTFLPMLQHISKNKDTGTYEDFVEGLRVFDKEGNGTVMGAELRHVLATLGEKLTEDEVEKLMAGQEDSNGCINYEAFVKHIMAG
T3 sequence (Q3SZE5 whole entry partner): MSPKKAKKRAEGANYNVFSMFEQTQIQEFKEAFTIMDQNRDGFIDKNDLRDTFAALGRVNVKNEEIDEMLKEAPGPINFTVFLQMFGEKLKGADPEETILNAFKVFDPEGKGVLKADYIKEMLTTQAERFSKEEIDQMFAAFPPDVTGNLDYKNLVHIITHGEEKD
T1 sequence (Q9BE39 whole entry): as the sequence (Q9BE39 whole entry) above
T1 sequence (P85100 whole entry partner): as the sequence (P85100 whole entry partner) above
T1 sequence (Q3SZE5 whole entry partner): as the sequence (Q3SZE5 whole entry partner) above

IC50 ([1]; read-out: DRX ATPase Rate, kfast (BcMF), half-maximal decrease): > 12.5 µM
EC50 ([1]; read-out: SRX Amplitude, Aslow (BcMF), half-maximal increase): > 12.5 µM
IC50 [2]: 4.05 ± 0.34 µM
I(0), Guinier Analysis [3]: 0.04 ± 0.01 cm⁻¹
I(0), P(r) Analysis [3]: 0.04 ± 0 cm⁻¹
Porod volume, P(r) Analysis [3]: 1.42e6 Å^−3
Rg, Guinier Analysis [3]: 102.5±1.5 Å
Rg, P(r) Analysis [3]: 124±10 Å
reduction of Rg (Guinier) compared to untreated 25-hep HMM [3]: 14%
reduction of Rg (P(r) analysis) compared to untreated 25-hep HMM [3]: 11%
IC50 [4]: 2.37 ± 0.12 µM
Hydrodynamic radius of 25-hep HMM (DLS) [5]: 84.1±2.2 Å
Molecular Mass of 25-hep HMM (MALS) [5]: 363±14 kDa
lifetime of mant-nucleotides for compound-bound myosin ([6]; experiment duration 2400 s): > 2400 s
IC50 ([6]; read-out: DRX ATPase Rate, kfast (BcSTF), half-maximal decrease, 0μM blebbistatin): > 12.5 µM
EC50 ([6]; read-out: SRX Amplitude, Aslow (BcSTF), half-maximal increase, 0μM blebbistatin): > 12.5 µM
Compound: Cc1ccc2c(c1)C(=O)[C@]1(O)CCN(c3ccc([N+](=O)[O-])cc3)C1=N2 [Para-nitroblebbistatin, para-nitroblebbistatin]

magnitude of myosin SRX population ([1]; saturating concentrations): ~ 65%
Hill coefficient ([6]; DRX to SRX shift, up to 3.125 μM): 2–4
magnitude of myosin SRX population ([6]; saturating concentrations): ~ 100%
Compound: CC(C)n1c(=O)cc(N[C@@H](C)c2ccccc2)[nH]c1=O [Mavacamten, mavacamten]

binding of blebbistatin in the presence of mavacamten (myosin): not compromised
Compound: Cc1ccc2c(c1)C(=O)C1(O)CCN(c3ccccc3)C1=N2 (centres unmarked) [blebbistatin]
